The NIST ThermoML archive (doi:10.1021/je8001255)
Numbers after ± are expanded uncertainties.

Assay: an = ratio of the nth substance listed, in mol/kg
Details: 100 kPa, Liquid; for electrical conductivity: Alternating current cell with electrodes

O=S(=O)([O-])[O-].[Ni+2] [nickel monosulfate] + O
electrical conductivity (278.15 K, a1 = 0.006): 0.0606 ± 0.0061 S/m
electrical conductivity (278.15 K, a1 = 0.02566): 0.192 ± 0.019 S/m
electrical conductivity (278.15 K, a1 = 0.04922): 0.321 ± 0.032 S/m
electrical conductivity (278.15 K, a1 = 0.122): 0.656 ± 0.066 S/m
electrical conductivity (278.15 K, a1 = 0.25): 1.18 ± 0.12 S/m
electrical conductivity (278.15 K, a1 = 0.3674): 1.55 ± 0.15 S/m
electrical conductivity (278.15 K, a1 = 0.4988): 1.94 ± 0.19 S/m
electrical conductivity (278.15 K, a1 = 0.68): 2.39 ± 0.24 S/m
electrical conductivity (278.15 K, a1 = 0.7969): 2.64 ± 0.26 S/m
electrical conductivity (278.15 K, a1 = 1.022): 2.99 ± 0.3 S/m
electrical conductivity (278.15 K, a1 = 1.156): 3.13 ± 0.31 S/m
electrical conductivity (278.15 K, a1 = 1.394): 3.21 ± 0.32 S/m
electrical conductivity (278.15 K, a1 = 1.601): 3.11 ± 0.31 S/m
electrical conductivity (278.15 K, a1 = 1.783): 2.89 ± 0.29 S/m
electrical conductivity (283.15 K, a1 = 0.006): 0.0696 ± 0.007 S/m
electrical conductivity (283.15 K, a1 = 0.02566): 0.221 ± 0.022 S/m
electrical conductivity (283.15 K, a1 = 0.04922): 0.368 ± 0.037 S/m
electrical conductivity (283.15 K, a1 = 0.122): 0.753 ± 0.075 S/m
electrical conductivity (283.15 K, a1 = 0.25): 1.36 ± 0.14 S/m
electrical conductivity (283.15 K, a1 = 0.3674): 1.78 ± 0.18 S/m
electrical conductivity (283.15 K, a1 = 0.4988): 2.23 ± 0.22 S/m
electrical conductivity (283.15 K, a1 = 0.68): 2.75 ± 0.28 S/m
electrical conductivity (283.15 K, a1 = 0.7969): 3.04 ± 0.3 S/m
electrical conductivity (283.15 K, a1 = 1.022): 3.46 ± 0.35 S/m
electrical conductivity (283.15 K, a1 = 1.156): 3.62 ± 0.36 S/m
electrical conductivity (283.15 K, a1 = 1.394): 3.73 ± 0.37 S/m
electrical conductivity (283.15 K, a1 = 1.601): 3.64 ± 0.36 S/m
electrical conductivity (283.15 K, a1 = 1.783): 3.42 ± 0.34 S/m
electrical conductivity (288.15 K, a1 = 0.006): 0.079 ± 0.0079 S/m
electrical conductivity (288.15 K, a1 = 0.02566): 0.25 ± 0.025 S/m
electrical conductivity (288.15 K, a1 = 0.04922): 0.417 ± 0.042 S/m
electrical conductivity (288.15 K, a1 = 0.122): 0.852 ± 0.085 S/m
electrical conductivity (288.15 K, a1 = 0.25): 1.54 ± 0.15 S/m
electrical conductivity (288.15 K, a1 = 0.3674): 2.01 ± 0.2 S/m
electrical conductivity (288.15 K, a1 = 0.4988): 2.52 ± 0.25 S/m
electrical conductivity (288.15 K, a1 = 0.68): 3.12 ± 0.31 S/m
electrical conductivity (288.15 K, a1 = 0.7969): 3.45 ± 0.35 S/m
electrical conductivity (288.15 K, a1 = 1.022): 3.94 ± 0.39 S/m
electrical conductivity (288.15 K, a1 = 1.156): 4.13 ± 0.41 S/m
electrical conductivity (288.15 K, a1 = 1.394): 4.29 ± 0.43 S/m
electrical conductivity (288.15 K, a1 = 1.601): 4.2 ± 0.42 S/m
electrical conductivity (288.15 K, a1 = 1.783): 3.99 ± 0.4 S/m
electrical conductivity (293.15 K, a1 = 0.006): 0.0886 ± 0.0089 S/m
electrical conductivity (293.15 K, a1 = 0.02566): 0.28 ± 0.028 S/m
electrical conductivity (293.15 K, a1 = 0.04922): 0.467 ± 0.047 S/m
electrical conductivity (293.15 K, a1 = 0.122): 0.954 ± 0.095 S/m
electrical conductivity (293.15 K, a1 = 0.25): 1.72 ± 0.17 S/m
electrical conductivity (293.15 K, a1 = 0.3674): 2.25 ± 0.23 S/m
electrical conductivity (293.15 K, a1 = 0.4988): 2.83 ± 0.28 S/m
electrical conductivity (293.15 K, a1 = 0.68): 3.51 ± 0.35 S/m
electrical conductivity (293.15 K, a1 = 0.7969): 3.88 ± 0.39 S/m
electrical conductivity (293.15 K, a1 = 1.022): 4.44 ± 0.44 S/m
electrical conductivity (293.15 K, a1 = 1.156): 4.67 ± 0.47 S/m
electrical conductivity (293.15 K, a1 = 1.394): 4.87 ± 0.49 S/m
electrical conductivity (293.15 K, a1 = 1.601): 4.8 ± 0.48 S/m
electrical conductivity (293.15 K, a1 = 1.783): 4.59 ± 0.46 S/m
electrical conductivity (298.15 K, a1 = 0.006): 0.0984 ± 0.0098 S/m
electrical conductivity (298.15 K, a1 = 0.02566): 0.31 ± 0.031 S/m
electrical conductivity (298.15 K, a1 = 0.04922): 0.517 ± 0.052 S/m
electrical conductivity (298.15 K, a1 = 0.122): 1.06 ± 0.11 S/m
electrical conductivity (298.15 K, a1 = 0.25): 1.91 ± 0.19 S/m
electrical conductivity (298.15 K, a1 = 0.3674): 2.5 ± 0.25 S/m
electrical conductivity (298.15 K, a1 = 0.4988): 3.14 ± 0.31 S/m
electrical conductivity (298.15 K, a1 = 0.68): 3.9 ± 0.39 S/m
electrical conductivity (298.15 K, a1 = 0.7969): 4.31 ± 0.43 S/m
electrical conductivity (298.15 K, a1 = 1.022): 4.95 ± 0.49 S/m
electrical conductivity (298.15 K, a1 = 1.156): 5.22 ± 0.52 S/m
electrical conductivity (298.15 K, a1 = 1.394): 5.47 ± 0.55 S/m
electrical conductivity (298.15 K, a1 = 1.601): 5.42 ± 0.54 S/m
electrical conductivity (298.15 K, a1 = 1.783): 5.22 ± 0.52 S/m
mass density (298.15 K, a1 = 0.006): 998.02 ± 2.2 kg/m3
mass density (298.15 K, a1 = 0.02566): 1001.23 ± 2.2 kg/m3
mass density (298.15 K, a1 = 0.04922): 1005.09 ± 2.2 kg/m3
mass density (298.15 K, a1 = 0.122): 1017.09 ± 2.3 kg/m3
mass density (298.15 K, a1 = 0.25): 1038.54 ± 2.4 kg/m3
mass density (298.15 K, a1 = 0.3674): 1058.67 ± 2.5 kg/m3
mass density (298.15 K, a1 = 0.4988): 1081.77 ± 2.7 kg/m3
mass density (298.15 K, a1 = 0.68): 1114.8 ± 2.9 kg/m3
mass density (298.15 K, a1 = 0.7969): 1136.9 ± 3 kg/m3
mass density (298.15 K, a1 = 1.022): 1181.4 ± 3.3 kg/m3
mass density (298.15 K, a1 = 1.156): 1208.94 ± 3.5 kg/m3
mass density (298.15 K, a1 = 1.394): 1260.5 ± 3.9 kg/m3
mass density (298.15 K, a1 = 1.601): 1308 ± 4.2 kg/m3
mass density (298.15 K, a1 = 1.783): 1351.92 ± 4.5 kg/m3
electrical conductivity (303.15 K, a1 = 0.006): 0.108 ± 0.011 S/m
electrical conductivity (303.15 K, a1 = 0.02566): 0.341 ± 0.034 S/m
electrical conductivity (303.15 K, a1 = 0.04922): 0.568 ± 0.057 S/m
electrical conductivity (303.15 K, a1 = 0.122): 1.16 ± 0.12 S/m
electrical conductivity (303.15 K, a1 = 0.25): 2.09 ± 0.21 S/m
electrical conductivity (303.15 K, a1 = 0.3674): 2.75 ± 0.27 S/m
electrical conductivity (303.15 K, a1 = 0.4988): 3.45 ± 0.34 S/m
electrical conductivity (303.15 K, a1 = 0.68): 4.29 ± 0.43 S/m
electrical conductivity (303.15 K, a1 = 0.7969): 4.75 ± 0.48 S/m
electrical conductivity (303.15 K, a1 = 1.022): 5.47 ± 0.55 S/m
electrical conductivity (303.15 K, a1 = 1.156): 5.77 ± 0.58 S/m
electrical conductivity (303.15 K, a1 = 1.394): 6.08 ± 0.61 S/m
electrical conductivity (303.15 K, a1 = 1.601): 6.06 ± 0.61 S/m
electrical conductivity (303.15 K, a1 = 1.783): 5.86 ± 0.59 S/m
electrical conductivity (308.15 K, a1 = 0.006): 0.119 ± 0.012 S/m
electrical conductivity (308.15 K, a1 = 0.02566): 0.372 ± 0.037 S/m
electrical conductivity (308.15 K, a1 = 0.04922): 0.618 ± 0.062 S/m
electrical conductivity (308.15 K, a1 = 0.122): 1.26 ± 0.13 S/m
electrical conductivity (308.15 K, a1 = 0.25): 2.28 ± 0.23 S/m
electrical conductivity (308.15 K, a1 = 0.3674): 2.99 ± 0.3 S/m
electrical conductivity (308.15 K, a1 = 0.4988): 3.76 ± 0.38 S/m
electrical conductivity (308.15 K, a1 = 0.68): 4.63 ± 0.46 S/m
electrical conductivity (308.15 K, a1 = 0.7969): 5.19 ± 0.52 S/m
electrical conductivity (308.15 K, a1 = 1.022): 5.99 ± 0.6 S/m
electrical conductivity (308.15 K, a1 = 1.156): 6.34 ± 0.63 S/m
electrical conductivity (308.15 K, a1 = 1.394): 6.7 ± 0.67 S/m
electrical conductivity (308.15 K, a1 = 1.601): 6.7 ± 0.67 S/m
electrical conductivity (308.15 K, a1 = 1.783): 6.53 ± 0.65 S/m
